The test system of data set [1] is HEK293/API2-MALT1/NF-κB reporter cells. The data set can be described thus: Inhibition of reporter activity in HEK293/API2-MALT1/NF-κB reporter cells. It is filed as cell-based. The settings on record: Homo sapiens, 24 hours with test substance, One-glo luminescence. On the procedure:
The API2-MALT1 fusion protein, expressed in MALT lymphoma, is known to constitutively activate the NF-κB pathway. To evaluate the inhibitory effect of the test substance on the NF-κB pathway in cells, a reporter activity inhibition test was conducted using HEK293/API2-MALT1/NF-κB reporter cells.
The test substance was prepared at a concentration of 10 mM in dimethyl sulfoxide (DMSO) and further diluted with DMSO to each of concentrations of 1000, 300, 100, and 10 µM. The solutions were further diluted 100-fold with DMEM medium containing 10% FBS to prepare test substance solutions.
HEK293/API2-MALT1/NF-κB reporter cells and 293T/CMV reporter cells (used as a negative control) were cultured in DMEM medium containing 10% FBS. Into a 384-well plate (#781080, Greiner), 6,000 cells were seeded in 30 µL per well, and after culturing for 24 hours, 3.3 µL of the adjusted test substance solution was added thereto (final concentrations: 10,000, 1,000, 100, and 10 nM). After culturing for 24 hours at 37°C in a 5% CO2 incubator, 33 µL of One-glo (Promega) was added to each well. After a 5-minute incubation at room temperature, luminescence was detected using a microplate reader (EnVision, PerkinElmer).
Using the measurement data, non-linear regression analysis was performed with the SAS system (SAS Institute Inc.) to estimate IC50.

Data set [2] has as its system SU-DHL-4 cell lines. Description: Proliferation inhibition test, GCB-DLBCL cell line SU-DHL-4 (negative control line). Particulars: Homo sapiens; SU-DHL-4 (GCB-DLBCL, NF-κB pathway-independent, negative control); 96 hours; Cell Counting Kit-8; read-out: Proliferation inhibitory activity against SU-DHL-4 IC50. The format is cell-based. On the procedure: (§1) In ABC-DLBCL cell lines, the NF-κB pathway is constitutively activated due to mutations in the B-cell receptor pathway. To evaluate the proliferation inhibitory activity associated with the MALT1 inhibitory activity of the test substance, a proliferation inhibition test was conducted using ABC-DLBCL cell lines.
(§2) The test substance was prepared at a concentration of 10 mM in dimethyl sulfoxide (DMSO) and further diluted with DMSO to each of concentrations of 3,000, 1,000, 300, 100, 30, and 10 µM. The solutions were further diluted 100-fold with IMDM medium containing 10% FBS to prepare test substance solutions.
(§3) OCI-Ly3 cell lines (ABC-DLBCL, NF-κB pathway-dependent) were cultured in IMDM containing 10% FBS, and SU-DHL-4 cell lines (GCB-DLBCL, NF-κB pathway-independent, used as a negative control) were cultured in RPMI-1640 containing 10% FBS. Into a 96-well plate, 2,000 cells of the OCI-Ly3 cell line and 4,000 cells of the SU-DHL-4 cell line were seeded in 100 µL per well, and 11 µL of the adjusted test substance solution was added thereto (final concentrations: 10,000, 3,000, 1,000, 300, 100, 30, and 10 nM). After 96 hours of incubation at 37°C in a 5% CO2 incubator, 10 µL of Cell Counting Kit-8 (Dojindo Laboratories) was added to each well. After 4 hours of incubation at 37°C, absorbance at 450 nm was detected using a microplate reader (EnVision, PerkinElmer).
(§4) Using the measurement data, non-linear regression analysis based on a 2-parameter logistic model was performed with Spotfire (PerkinElmer) to estimate IC50 values.

The nature of data set [3]: Central nervous system (CNS) penetration study in mice. It is filed as in vivo. Particulars: female, BALB/cCrSlc, mouse, ip, 30 mg/kg intraperitoneally, three hours later, cerebrum and plasma by LC-MS/MS, read-out: Brain-to-plasma concentration ratio (Kp value). As to the method:
To evaluate the central nervous system (CNS) penetration of a test substance, a central nervous system penetration study was conducted using mice.
Six-week-old female BALB/cCrSlc mice (Japan SLC) were used. The test substance suspended in 0.5% methylcellulose was intraperitoneally administered to mice at a dose of 30 mg/kg. Three hours later, blood was collected from the abdominal vena cava under isoflurane anesthesia, and plasma was obtained by centrifugation. After exsanguination from the abdominal vena cava, the cerebrum was collected.
The drug concentrations of the collected plasma and cerebrum were measured by LC-MS/MS. To determine the brain penetration of the drug, the brain-to-plasma concentration ratio (Kp value) was calculated.

In data set [4] the target is T1, C-terminal catalytic domain of MALT1 (amino acid residues 329-824) (Homo sapiens, UniProt Q9UDY8).
T1 construct: C-terminal catalytic domain of MALT1 (amino acid residues 329-824)
T1 sequence (Q9UDY8 329-824): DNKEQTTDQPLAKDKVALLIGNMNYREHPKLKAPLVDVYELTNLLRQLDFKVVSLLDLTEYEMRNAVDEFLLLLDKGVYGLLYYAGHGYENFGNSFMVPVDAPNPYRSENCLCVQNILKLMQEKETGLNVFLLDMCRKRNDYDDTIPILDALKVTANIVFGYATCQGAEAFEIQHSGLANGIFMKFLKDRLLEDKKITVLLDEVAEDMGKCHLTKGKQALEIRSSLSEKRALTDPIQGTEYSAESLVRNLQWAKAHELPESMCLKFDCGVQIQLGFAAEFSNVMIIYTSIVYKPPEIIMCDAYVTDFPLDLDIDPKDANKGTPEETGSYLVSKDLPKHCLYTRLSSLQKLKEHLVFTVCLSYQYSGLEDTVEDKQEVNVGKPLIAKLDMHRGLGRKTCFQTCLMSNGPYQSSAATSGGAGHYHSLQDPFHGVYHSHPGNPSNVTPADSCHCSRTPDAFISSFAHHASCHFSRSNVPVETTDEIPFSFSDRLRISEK
Description: MALT1 protease inhibitory activity (enzyme activity inhibition assay, fluorogenic substrate). The format is biochemical. The settings on record: substrate Ac-Leu-Arg-Ser-Arg-AMC 50 µM; 30°C for 2 hours; fluorescence. On the procedure: To evaluate the enzyme inhibitory activity of a test substance against MALT1, an enzyme activity inhibition assay was conducted using the C-terminal catalytic domain of MALT1 (amino acid residues 329-824).
A test substance was prepared at a concentration of 10 mM in dimethyl sulfoxide (DMSO) and further diluted with DMSO to obtain final concentrations of 1000, 100, 10, 1, and 0.1 µM. The solutions were further diluted 25-fold with an assay buffer to prepare final test substance solutions. The composition of the assay buffer was 200 mM Tris/HCl HEPES (pH 7.5), 0.8 M Na citrate, 100 µM DTT, and 0.05% CHAPS.
The test substance solution was added to a 384-well black plate (#6007270, PerkinElmer) in an amount of 5 µL per well (n = 2; final concentrations of 10000, 1000, 100, 10, 1, and 0.1 nM), followed by the addition of 10 µL of MALT1 enzyme and finally 5 µL of a substrate solution (Ac-Leu-Arg-Ser-Arg-AMC, Peptide Institute, Inc.; final concentration in the reaction mixture: 50 µM), and after stirring, the mixture was allowed to react at 30°C for 2 hours. Fluorescence (excitation: 380 nm, emission: 460 nm) was detected using a microplate reader (EnVision, PerkinElmer).
Using the measurement data, non-linear regression analysis based on a 2-parameter logistic model was performed with Spotfire (PerkinElmer) to calculate IC50.

Data set [5] relates to OCI-Ly3 cell lines. Description: Proliferation inhibition test, ABC-DLBCL cell line OCI-Ly3. Particulars: Homo sapiens; OCI-Ly3 (ABC-DLBCL, NF-κB pathway-dependent); 96 hours; Cell Counting Kit-8; read-out: Proliferation inhibitory activity against OCI-Ly3 IC50. It is filed as cell-based. As to the method: as §1, §2, §3, §4

Among the data in patent EP4772507A1, “AZAINDOLE COMPOUND AND MEDICAL DRUG” (Nippon Shinyaku Co., Ltd., priority 2023, dated 2025) are IC50 and Kp values, retold here.

Take `C[C@@H]1CC(C(=O)c2cn(C3COC3)c3nc(-n4nccn4)c(Cl)cc23)C[C@@H](C)N1c1ncc(F)cc1I` (stereo partly drawn) [Example 1, [5-chloro-1-(oxetan-3-yl)-6-(2H-1,2,3-triazol-2-yl)-1H-pyrrolo[2,3-b]pyridin-3-yl][(2R,6R)-1-(5-fluoro-3-iodopyridin-2-yl)-2,6-dimethylpiperidin-4-yl]methanone]: the IC50 in data set [1] is 170 nM; in data set [2], 5400 nM; in data set [4], 45 nM; in data set [5], 620 nM. In addition, the Kp at 3 h in data set [3] was 1.6.
For `C[C@@H]1CC(C(=O)c2cn(C)c3nc(-n4nccn4)c(Cl)cc23)C[C@@H](C)N1c1ncc(F)cc1I` (stereo partly drawn) [Example 2, [5-chloro-1-methyl-6-(2H-1,2,3-triazol-2-yl)-1H-pyrrolo[2,3-b]pyridin-3-yl][(2R,6R)-1-(5-fluoro-3-iodopyridin-2-yl)-2,6-dimethylpiperidin-4-yl]methanone] the same measures were 60 nM, 7200 nM, 18 nM, 300 nM and 1.2.
Turning to `C[C@@H]1CC(C(=O)c2cn(CC#N)c3nc(-n4nccn4)c(Cl)cc23)C[C@@H](C)N1c1ncc(F)cc1I` (stereo partly drawn) [Example 3, {5-chloro-3-[(2R,6R)-1-(5-fluoro-3-iodopyridin-2-yl)-2,6-dimethylpiperidin-4-carbonyl]-6-(2H-1,2,3-triazol-2-yl)-1H-pyrrolo[2,3-b]pyridin-1-yl}acetonitrile], the IC50 stood at 200 nM in data set [1], 6300 nM in data set [2], 43 nM in data set [4] and 580 nM in data set [5]. Moreover, the Kp at 3 h in data set [3] worked out at 0.73.
The like results for `CC(=O)N1CC(n2cc(C(=O)C3C[C@@H](C)N(c4ncc(F)cc4I)[C@H](C)C3)c3cc(Cl)c(-n4nccn4)nc32)C1` (stereo partly drawn) [Example 5, 1-(3-{5-chloro-3-[(2R,6R)-1-(5-fluoro-3-iodopyridin-2-yl)-2,6-dimethylpiperidin-4-carbonyl]-6-(2H-1,2,3-triazol-2-yl)-1H-pyrrolo[2,3-b]pyridin-1-yl}azetidin-1-yl)ethan-1-one] were, in that order, 160 nM, 3600 nM, 35 nM, 310 nM and 0.12.
The like results for `Cn1cc(C(=O)c2cnn(-c3cncc4c(F)cccc34)c2C(F)(F)F)c2cc(Cl)c(-n3nccn3)nc21` [Example 6, [5-chloro-1-methyl-6-(2H-1,2,3-triazol-2-yl)-1H-pyrrolo[2,3-b]pyridin-3-yl][1-(8-fluoroisoquinolin-4-yl)-5-(trifluoromethyl)-1H-pyrazol-4-yl]methanone] were, in that order, 75 nM, 2300 nM, 13 nM, 150 nM and 0.83.
On to `C[C@@H]1CC(C(=O)c2cn(C3CC3)c3nc(-n4nccn4)c(Cl)cc23)C[C@@H](C)N1c1ncc(F)cc1I` (stereo partly drawn) [Example 16, [5-chloro-1-cyclopropyl-6-(2H-1,2,3-triazol-2-yl)-1H-pyrrolo[2,3-b]pyridin-3-yl][(2R,6R)-1-(5-fluoro-3-iodopyridin-2-yl)-2,6-dimethylpiperidin-4-yl]methanone], for which the IC50 was 9700 nM in data set [2], 310 nM in data set [4] and 720 nM in data set [5]. In addition, the Kp at 3 h in data set [3] was determined as 0.28.
As to `O=C(c1cnn(-c2cccc3c(=O)[nH]ccc23)c1C(F)(F)F)c1cn(C2CCC2)c2nc(-n3nccn3)c(Cl)cc12` [Example 30, 5-{4-[5-chloro-1-cyclobutyl-6-(2H-1,2,3-triazol-2-yl)-1H-pyrrolo[2,3-b]pyridine-3-carbonyl]-5-(trifluoromethyl)-1H-pyrazol-1-yl}isoquinolin-1(2H)-one], the IC50 is 500 nM in data set [1], greater than 10000 nM in data set [2], 44 nM in data set [4] and 870 nM in data set [5].
Take `Cn1cc(C(=O)c2cnn(-c3cccn4c(=O)cccc34)c2C(F)(F)F)c2cc(Cl)c(-n3nccn3)nc21` [Example 31, 9-{4-[5-chloro-1-methyl-6-(2H-1,2,3-triazol-2-yl)-1H-pyrrolo[2,3-b]pyridine-3-carbonyl]-5-(trifluoromethyl)-1H-pyrazol-1-yl}-4H-quinolizin-4-one]: the IC50 in data set [1] was 73 nM; in data set [2], greater than 10000 nM; in data set [4], 25 nM; in data set [5], 150 nM.
For `COc1nc2c(cc1Cl)c(C(=O)c1cnn(-c3cncc4c(F)cccc34)c1C(F)(F)F)cn2C` [Example 32, (5-chloro-6-methoxy-1-methyl-1H-pyrrolo[2,3-b]pyridin-3-yl)[1-(8-fluoroisoquinolin-4-yl)-5-(trifluoromethyl)-1H-pyrazol-4-yl]methanone] the same measures were 280 nM, greater than 10000 nM, 54 nM and 140 nM.
